Residue numbers refer to the chain shown, from its start. Names and notes keep the numbering of the source.
How the values were obtained:
TRPM7 WT = target: T1, TRPM7 WT (Mus musculus, UniProt Q923J1); assay: Aequorin-based Ca2+ influx assay, inhibition of TRPM7-mediated Ca2+ influx; type: cell-based; settings: antagonist, mean ± SEM
T1 construct: expressed in transfected cells; host or cells: HEK 293T
Procedure: (§1) Measurements of [Ca^2+]i were performed as reported previously with several modifications[2],[52],[54]. HEK 293T cells (mycoplasma test negative, ATCC #CRL3216) were maintained at 37 °C and 5% CO2 in DMEM supplemented with 10% fetal calf serum, 100 µg/ml streptomycin and 100 U/ml penicillin (all from Thermo Fisher Scientific). Cells cultured in six-well plates (~60% confluence) were transfected with 2 µg/dish Trpm7 plasmid DNA and 0.1 µg/dish pG5A plasmid DNA encoding eGFP fused to Aequorea victoria aequorin, using Lipofectamine 2000 (Thermo Fisher Scientific). Twenty-four hours after transfection, the cells were washed with Mg^2+-free HEPES-buffered saline (Mg^2+-free HBS) containing 140 mM NaCl, 6 mM KCl, 0.5 mM CaCl2, 10 mM HEPES (pH 7.4) and 5 mM glucose, and mechanically resuspended in the Mg^2+-free HBS. For reconstitution of aequorin, cell suspensions were incubated with 5 µM coelenterazine (Biaffin GmbH) in the Mg^2+-free HBS for 30 min at room temperature. Cells were washed twice by centrifugation at 600 rpm for 5 min (Heraeus Pico 17 microcentrifuge, Thermo Fisher Scientific), resuspended in the Mg^2+-free HBS and aliquoted into 96-well plates (1 × 10^5 cells per well). Luminescence was detected at room temperature using a FLUOstar OPTIMA microplate reader (BMG LABTECH GmbH). To monitor the NS8593- and VER155008-induced inhibition of TRPM7-mediated Ca^2+ influx, the extracellular concentration of Ca^2+ was increased to 5 mM by injecting the CaCl2-containing Mg^2+-free HBS in the absence or presence of the inhibitors. […] To study activation by naltriben, TRPM7-transfected cells were exposed to Mg^2+-free HBS containing different concentrations of the agonist. The experiments were terminated by lysing cells with 0.1% (v/v) Triton X-100 in the Mg^2+-free HBS to record the total bioluminescence. The bioluminescence rates (counts/s) were analyzed at 1-s intervals and calibrated as [Ca^2+]i values using the following equation:1 p[Ca^2+]i=0.332588(−log(k))+5.5593 where k represents the rate of aequorin consumption, i.e., counts/s divided by the total number of counts.
(§2) To determine the IC50 values for NS8593 and VER155008 (EC50 for naltriben), the data were fitted with the following logistic equation:2 Ec=Emin+Emax+Emin/1+c^h/IC50^h where E(c) is the functional effect at the concentration c of the compound, Emin is the minimal effect, Emax is the maximal effect, IC50 (EC50) is the concentration of the compound that produces the half-maximal effect, and h is the Hill coefficient. Fitting of dose-response curves was performed using GraphPad Prism 8.4.0. Data are presented as the mean ± SEM.

TRPM7-A981L = target: T2, TRPM7-A981L (Mus musculus, UniProt Q923J1, A981L); assay: as above; type: cell-based; settings: antagonist, mean ± SEM
T2 construct: expressed in transfected cells; host or cells: HEK 293T
T2 sequence (Q923J1 whole entry A981L): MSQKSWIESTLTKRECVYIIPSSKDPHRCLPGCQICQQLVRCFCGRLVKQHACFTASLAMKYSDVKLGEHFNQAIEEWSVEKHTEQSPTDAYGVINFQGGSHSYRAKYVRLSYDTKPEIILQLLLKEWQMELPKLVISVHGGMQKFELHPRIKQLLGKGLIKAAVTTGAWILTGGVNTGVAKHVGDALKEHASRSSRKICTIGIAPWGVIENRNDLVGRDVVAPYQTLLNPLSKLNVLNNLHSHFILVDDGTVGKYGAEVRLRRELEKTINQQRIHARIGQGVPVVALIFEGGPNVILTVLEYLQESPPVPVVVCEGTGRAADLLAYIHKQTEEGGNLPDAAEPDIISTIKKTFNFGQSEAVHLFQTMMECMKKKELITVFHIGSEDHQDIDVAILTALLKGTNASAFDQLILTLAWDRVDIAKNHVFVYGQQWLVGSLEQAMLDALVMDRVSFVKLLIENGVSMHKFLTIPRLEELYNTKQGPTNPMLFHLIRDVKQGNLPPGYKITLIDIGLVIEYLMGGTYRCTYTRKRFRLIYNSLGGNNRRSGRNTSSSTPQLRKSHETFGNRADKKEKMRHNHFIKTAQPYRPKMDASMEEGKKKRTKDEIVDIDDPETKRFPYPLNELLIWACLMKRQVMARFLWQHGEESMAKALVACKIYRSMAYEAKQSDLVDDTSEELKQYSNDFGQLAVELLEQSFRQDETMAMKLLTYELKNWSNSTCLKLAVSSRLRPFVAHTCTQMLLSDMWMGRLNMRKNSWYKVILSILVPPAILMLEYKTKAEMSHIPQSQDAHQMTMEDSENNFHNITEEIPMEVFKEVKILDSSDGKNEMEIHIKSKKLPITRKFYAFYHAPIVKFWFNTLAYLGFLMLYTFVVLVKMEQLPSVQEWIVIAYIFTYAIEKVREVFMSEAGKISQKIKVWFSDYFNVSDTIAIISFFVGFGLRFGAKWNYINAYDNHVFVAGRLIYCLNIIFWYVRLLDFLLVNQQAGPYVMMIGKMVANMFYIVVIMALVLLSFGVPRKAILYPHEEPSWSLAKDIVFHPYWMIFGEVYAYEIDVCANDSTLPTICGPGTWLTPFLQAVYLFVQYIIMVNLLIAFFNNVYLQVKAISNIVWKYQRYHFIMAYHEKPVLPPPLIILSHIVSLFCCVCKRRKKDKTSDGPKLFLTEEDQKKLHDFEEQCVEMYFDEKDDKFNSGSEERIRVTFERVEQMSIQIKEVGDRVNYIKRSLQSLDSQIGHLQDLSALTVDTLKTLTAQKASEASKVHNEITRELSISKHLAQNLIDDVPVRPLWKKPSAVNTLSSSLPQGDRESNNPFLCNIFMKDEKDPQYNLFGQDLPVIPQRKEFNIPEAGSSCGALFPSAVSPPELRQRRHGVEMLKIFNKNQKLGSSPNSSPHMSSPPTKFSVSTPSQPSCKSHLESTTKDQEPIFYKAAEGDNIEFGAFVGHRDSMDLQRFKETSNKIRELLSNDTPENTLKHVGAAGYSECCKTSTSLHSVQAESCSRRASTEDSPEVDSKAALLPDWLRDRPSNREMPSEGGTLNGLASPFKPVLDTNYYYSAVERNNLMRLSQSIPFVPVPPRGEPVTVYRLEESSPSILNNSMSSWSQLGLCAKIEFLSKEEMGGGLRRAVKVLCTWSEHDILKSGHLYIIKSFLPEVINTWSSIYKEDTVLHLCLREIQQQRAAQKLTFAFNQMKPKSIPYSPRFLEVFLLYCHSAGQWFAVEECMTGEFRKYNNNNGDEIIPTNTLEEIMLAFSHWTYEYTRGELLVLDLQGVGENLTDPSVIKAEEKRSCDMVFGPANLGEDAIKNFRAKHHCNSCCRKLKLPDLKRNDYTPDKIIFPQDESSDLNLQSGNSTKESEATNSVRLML
Procedure: as §1, §2

TRPM7-A981V = target: T3, TRPM7-A981V (Mus musculus, UniProt Q923J1, A981V); assay: as above; type: cell-based; settings: antagonist, mean ± SEM
T3 construct: expressed in transfected cells; host or cells: HEK 293T
T3 sequence (Q923J1 whole entry A981V): as the sequence (Q923J1 whole entry A981L) above, with L981V counted along it
Procedure: as §1, §2

TRPM7-M991A = target: T4, TRPM7-M991A (Mus musculus, UniProt Q923J1, M991A); assay: as above; type: cell-based; settings: for sensitivity of the mutant to the inhibitor: TRPM7-M991A
T4 construct: expressed in transfected cells; host or cells: HEK 293T
T4 sequence (Q923J1 whole entry M991A): as the sequence (Q923J1 whole entry A981L) above, with L981A, M991A counted along it
Procedure: as §1, §2

TRPM7-N1098Q = target: T5, TRPM7-N1098Q (Mus musculus, UniProt Q923J1, N1098Q); assay: as above; type: cell-based; settings: N1098Q, antagonist, mean ± SEM
T5 construct: expressed in transfected cells; host or cells: HEK 293T
T5 sequence (Q923J1 whole entry N1098Q): as the sequence (Q923J1 whole entry A981L) above, with L981A, N1098Q counted along it
Procedure: as §1, §2

TRPM7-W1111A = target: T6, TRPM7-W1111A (Mus musculus, UniProt Q923J1, W1111A); assay: as above; type: cell-based; settings: antagonist, mean ± SEM
T6 construct: expressed in transfected cells; host or cells: HEK 293T
T6 sequence (Q923J1 whole entry W1111A): as the sequence (Q923J1 whole entry A981L) above, with L981A, W1111A counted along it
Procedure: as §1, §2

wild-type TRPM7 = target: T7, wild-type TRPM7 (Mus musculus, UniProt Q923J1); assay: Whole-cell patch-clamp recordings in HEK 293T cells; type: cell-based; settings: 10 µM inhibitor, 450-s exposure, amplitude at +80 mV
T7 construct: expressed in transfected cells; host or cells: HEK 293T
T7 sequence (Q923J1 whole entry): as the sequence (Q923J1 whole entry A981L) above, with L981A counted along it
Procedure: Patch-clamp experiments were performed as reported previously, with a few modifications[69],[70]. HEK 293T cells grown in 35-mm dishes to ~60% confluence were transiently transfected with Trpm7 cDNAs in the pIRES2-EGFP vector (2 µg/dish). Patch-clamp experiments were conducted 18–22 h after transfection with cells displaying EGFP fluorescence. Whole-cell currents were recorded using an EPC10 patch-clamp amplifier and PatchMaster software (Version V2x69, Harvard Bioscience). Voltages were corrected for a liquid junction potential of 10 mV. Currents were elicited by voltage ramps from –100 mV to +100 mV over 50 ms acquired at 0.5 Hz. The inward and outward current amplitudes were measured at –80 mV and +80 mV and were normalized to the cell size as pA/pF. The capacitance was measured using the automated capacitance cancellation function of EPC10. The standard extracellular solution contained 140 mM NaCl, 2.8 mM KCl, 1 mM CaCl2, 2 mM MgCl2, 10 mM HEPES-NaOH, and 11 mM glucose (all from Sigma-Aldrich). Solutions were adjusted to pH 7.2 using an FE20 pH meter (Mettler Toledo) and to 290 mOsm using a Vapro 5520 osmometer (Wescor Inc). […] For the experiment with naltriben, the intracellular solution contained 120 mM Cs-glutamate, 8 mM NaCl, 10 mM Cs-EGTA, 1.5 mM MgCl2, and 10 mM HEPES-CsOH. The intracellular solution was also adjusted to pH 7.2 and 290 mOsm. Data are presented as the mean ± SEM Unless indicated otherwise, data were compared by unpaired t-test (GraphPad Prism 8.4.0). For multiple comparisons, ordinary one-way ANOVA (GraphPad Prism 8.4.0) was used. Significance was accepted at P ≤ 0.05.

[1] = target: the molecule itself; assay: cryo-EM structure; single-particle cryo-EM of purified TRPM7 in GDN or in MSP2N2 lipid nanodiscs (POPC:POPE:POPG), 150 mM NaCl, 20 mM Tris pH 8.0; apo or with naltriben, VER155008 or NS8593; final refinement with C4 symmetry

T1 sequence (Q923J1 whole entry): as the sequence (Q923J1 whole entry A981L) above, with L981A counted along it

N#Cc1ccc(COC[C@H]2O[C@@H](n3c(NCc4ccc(Cl)c(Cl)c4)nc4c(N)ncnc43)[C@H](O)[C@@H]2O)cc1 [VER155008]
Hill coefficient (TRPM7 WT): –2.07 ± 0.41
IC50 (TRPM7 WT): 0.23 ± 0.03 µM
IC50 (TRPM7-A981L): ~25 µM
IC50 (TRPM7-A981V): not feasible to calculate the IC50 value
IC50 (TRPM7-M991A; M991A, antagonist, no added second inhibitor, mean ± SEM): not feasible to calculate the IC50 value
sensitivity of the mutant to the inhibitor (TRPM7-M991A; 0.1-10 μM VER155008 (response to reviewers)): no sensitivity
sensitivity of the mutant to the inhibitor (TRPM7-M991A; 1–10 µM VER): not sensitive
Hill coefficient (TRPM7-N1098Q): –1.32 ± 0.20
IC50 (TRPM7-N1098Q): 1.71 ± 0.25 µM
IC50 (TRPM7-W1111A): ~10 µM
amplitude of TRPM7-mediated currents in the presence of inhibitor (wild-type TRPM7): greatly reduced

B1: C-terminally truncated mouse TRPM7 (residues 1–1280), wild type (natural protein, UniProt Q923J1 1-1280, looked up)
chain: MSQKSWIESTLTKRECVYIIPSSKDPHRCLPGCQICQQLVRCFCGRLVKQHACFTASLAMKYSDVKLGEHFNQAIEEWSVEKHTEQSPTDAYGVINFQGGSHSYRAKYVRLSYDTKPEIILQLLLKEWQMELPKLVISVHGGMQKFELHPRIKQLLGKGLIKAAVTTGAWILTGGVNTGVAKHVGDALKEHASRSSRKICTIGIAPWGVIENRNDLVGRDVVAPYQTLLNPLSKLNVLNNLHSHFILVDDGTVGKYGAEVRLRRELEKTINQQRIHARIGQGVPVVALIFEGGPNVILTVLEYLQESPPVPVVVCEGTGRAADLLAYIHKQTEEGGNLPDAAEPDIISTIKKTFNFGQSEAVHLFQTMMECMKKKELITVFHIGSEDHQDIDVAILTALLKGTNASAFDQLILTLAWDRVDIAKNHVFVYGQQWLVGSLEQAMLDALVMDRVSFVKLLIENGVSMHKFLTIPRLEELYNTKQGPTNPMLFHLIRDVKQGNLPPGYKITLIDIGLVIEYLMGGTYRCTYTRKRFRLIYNSLGGNNRRSGRNTSSSTPQLRKSHETFGNRADKKEKMRHNHFIKTAQPYRPKMDASMEEGKKKRTKDEIVDIDDPETKRFPYPLNELLIWACLMKRQVMARFLWQHGEESMAKALVACKIYRSMAYEAKQSDLVDDTSEELKQYSNDFGQLAVELLEQSFRQDETMAMKLLTYELKNWSNSTCLKLAVSSRLRPFVAHTCTQMLLSDMWMGRLNMRKNSWYKVILSILVPPAILMLEYKTKAEMSHIPQSQDAHQMTMEDSENNFHNITEEIPMEVFKEVKILDSSDGKNEMEIHIKSKKLPITRKFYAFYHAPIVKFWFNTLAYLGFLMLYTFVVLVKMEQLPSVQEWIVIAYIFTYAIEKVREVFMSEAGKISQKIKVWFSDYFNVSDTIAIISFFVGFGLRFGAKWNYINAYDNHVFVAGRLIYCLNIIFWYVRLLDFLAVNQQAGPYVMMIGKMVANMFYIVVIMALVLLSFGVPRKAILYPHEEPSWSLAKDIVFHPYWMIFGEVYAYEIDVCANDSTLPTICGPGTWLTPFLQAVYLFVQYIIMVNLLIAFFNNVYLQVKAISNIVWKYQRYHFIMAYHEKPVLPPPLIILSHIVSLFCCVCKRRKKDKTSDGPKLFLTEEDQKKLHDFEEQCVEMYFDEKDDKFNSGSEERIRVTFERVEQMSIQIKEVGDRVNYIKRSLQSLDSQIGHLQDLSALTVDTLKTLTAQKASEASKVHNEITRELSISKHLAQNLID
notes: mouse TRPM7 (Trpm7 cDNA NM_021450), truncated C-terminally, protein residues 1–1280; lacks the kinase domain; A thrombin cleavage site (LVPRG) stands between GFP and TRPM7; the purification as described has no thrombin step; also called TRPM7_(Closed); TRPM7_(NTB-open); source: HEK 293S GnTI- cells, baculovirus-transduced (pEG-BacMam), purified (strep resin, SEC); in GDN or reconstituted in …
stoichiometry N [1]: 4

B2: C-terminally truncated mouse TRPM7 (residues 1–1280) with the gain-of-function mutation N1098Q (natural protein, UniProt Q923J1 1-1280, looked up)
chain: B1 chain with N1098Q
notes: mouse TRPM7 (Trpm7 cDNA NM_021450), truncated C-terminally, protein residues 1–1280, with N1098Q; Same construct as m1 with the point mutation; a thrombin cleavage site (LVPRG) stands between GFP and TRPM7, no thrombin step is described; also called TRPM7-N1098Q; TRPM7-N1098Q_(open); source: HEK 293S GnTI- cells, baculovirus-transduced (pEG-BacMam), purified (strep resin, SEC); in GDN
binding result [1]: binds
